Test results published in patent US20100016401A1, “3-AZA-BICYCLO[3.1.0]HEXANE DERIVATIVES” (Actelion Phamaceuticals Ltd., priority 2006, published 2010).

Tests used:
human orexin-1 receptor = molecular target: T1, human orexin-1 receptor (Homo sapiens, UniProt O43613); assay: Intracellular calcium measurements (FLIPR), orexin receptor antagonistic activity, OX1; type: cell-based; details: CHO cells expressing human orexin-1 receptor, 10 nM orexin-A as agonist
T1 construct: expressed in transfected cells; host or cells: CHO (Chinese hamster ovary) cells, grown under G418 selection
T1 sequence (O43613 1-425): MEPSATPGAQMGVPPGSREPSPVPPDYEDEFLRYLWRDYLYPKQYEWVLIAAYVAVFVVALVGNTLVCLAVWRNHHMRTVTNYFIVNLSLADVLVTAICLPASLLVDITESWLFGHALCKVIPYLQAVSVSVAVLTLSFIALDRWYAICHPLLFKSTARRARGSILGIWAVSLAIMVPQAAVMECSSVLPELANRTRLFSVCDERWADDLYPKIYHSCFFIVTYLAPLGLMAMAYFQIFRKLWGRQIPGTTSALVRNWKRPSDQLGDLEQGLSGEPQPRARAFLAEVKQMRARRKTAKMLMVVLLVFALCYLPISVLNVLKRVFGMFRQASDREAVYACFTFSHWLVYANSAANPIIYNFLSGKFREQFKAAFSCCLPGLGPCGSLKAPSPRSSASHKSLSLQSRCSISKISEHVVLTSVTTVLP
Method: (§1) The orexin receptor antagonistic activity of the compounds of formula (I) is determined in accordance with the following experimental method.
(§2) Intracellular Calcium Measurements:
(§3) Chinese hamster ovary (CHO) cells expressing the human orexin-1 receptor and the human orexin-2 receptor, respectively, are grown in culture medium (Ham F-12 with L-Glutamine) containing 300 μg/ml G418, 100 U/ml penicillin, 100 μg/ml streptomycin and 10% inactivated fetal calf serum (FCS). The cells are seeded at 80,000 cells/well into 96-well black clear bottom sterile plates (Costar) which have been precoated with 1% gelatine in Hanks' Balanced Salt Solution (HBSS). All reagents are from Gibco BRL. The seeded plates are incubated overnight at 37° C. in 5% CO2.
(§4) Human orexin-A as an agonist is prepared as 1 mM stock solution in MeOH: water (1:1), diluted in HBSS containing 0.1% bovine serum albumin (BSA) and 2 mM HEPES for use in the assay at a final concentration of 10 nM.
(§5) Antagonists are prepared as 10 mM stock solution in DMSO, then diluted in 96-well plates, first in DMSO, then in HBSS containing 0.1% bovine serum albumin (BSA) and 2 mM HEPES.
(§6) On the day of the assay, 100 μl of loading medium (HBSS containing 1% FCS, 2 mM HEPES, 5 mM probenecid (Sigma) and 3 μM of the fluorescent calcium indicator fluo-3 AM (1 mM stock solution in DMSO with 10% pluronic acid) (Molecular Probes) is added to each well.
(§7) The 96-well plates are incubated for 60 min at 37° C. in 5% CO2. The loading solution is then aspirated and cells are washed 3 times with 200 μl HBSS containing 2.5 mM probenecid, 0.1% BSA, 2 mM HEPES. 100 μl of that same buffer is left in each well.
(§8) Within the Fluorescent Imaging Plate Reader (FLIPR, Molecular Devices), antagonists are added to the plate in a volume of 50 μl, incubated for 20 min and finally 100 μl of agonist is added. Fluorescence is measured for each well at 1 second intervals, and the height of each fluorescence peak is compared to the height of the fluorescence peak induced by 10 nM orexin-A with buffer in place of antagonist.

human orexin-2 receptor = molecular target: T2, human orexin-2 receptor (Homo sapiens, UniProt O43614); assay: Intracellular calcium measurements (FLIPR), orexin receptor antagonistic activity, OX2; type: cell-based; details: CHO cells expressing human orexin-2 receptor, 10 nM orexin-A as agonist
T2 construct: expressed in transfected cells; host or cells: CHO (Chinese hamster ovary) cells, grown under G418 selection
T2 sequence (O43614 1-444): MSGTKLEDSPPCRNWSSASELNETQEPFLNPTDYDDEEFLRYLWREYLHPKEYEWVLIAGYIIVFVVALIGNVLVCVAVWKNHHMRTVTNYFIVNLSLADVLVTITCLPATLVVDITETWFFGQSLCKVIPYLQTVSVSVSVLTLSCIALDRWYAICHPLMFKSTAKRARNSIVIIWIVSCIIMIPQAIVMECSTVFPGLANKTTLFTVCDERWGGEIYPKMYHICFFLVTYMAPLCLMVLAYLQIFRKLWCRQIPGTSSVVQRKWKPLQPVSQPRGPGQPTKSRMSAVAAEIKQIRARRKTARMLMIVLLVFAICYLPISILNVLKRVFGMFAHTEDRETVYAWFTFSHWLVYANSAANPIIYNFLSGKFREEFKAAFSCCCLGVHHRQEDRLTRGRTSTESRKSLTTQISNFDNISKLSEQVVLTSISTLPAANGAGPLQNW
Method: as §1, §2, §3, §4, §5, §6, §7, §8

SMILES	IC50 (human orexin-1 receptor) [nM]	IC50 (human orexin-2 receptor) [nM]
Cc1nc(C(=O)N2C[C@H]3C[C@H]3[C@H]2CNC(=O)c2cnc3sccn23)c(-c2cccc(F)c2)s1 (relative stereo) [Example 214, Imidazo[2,1-b]thiazole-5-carboxylic acid {(1R*,2S*,5S*)-3-[5-(3-fluoro-phenyl)-2-methyl-thiazole-4-carbonyl]-3-aza-bicyclo[3.1.0]hex-2-ylmethyl}-amide]	37	17
Cc1nc(C(=O)N2C[C@H]3C[C@H]3[C@H]2CNC(=O)c2cccc3c2OCO3)c(-c2cccc(F)c2)s1 (relative stereo) [Example 242, Benzo[1,3]dioxole-4-carboxylic acid {(1R*,2S*,5S*)-3-[5-(3-fluoro-phenyl)-2-methyl-thiazole-4-carbonyl]-3-aza-bicyclo[3.1.0]hex-2-ylmethyl}-amide]	963	59
Cc1nc(C(=O)N2C[C@H]3C[C@H]3[C@H]2CNC(=O)c2cccc3c2OCCO3)c(-c2cccc(F)c2)s1 (relative stereo) [Example 256, 2,3-Dihydro-benzo[1,4]dioxine-5-carboxylic acid {(1R*,2S*,5S*)-3-[5-(3-fluoro-phenyl)-2-methyl-thiazole-4-carbonyl]-3-aza-bicyclo[3.1.0]hex-2-ylmethyl}-amide]	111	14
Cc1cccc(-c2sc(N)nc2C(=O)N2C[C@H]3C[C@H]3[C@H]2CNC(=O)c2sc3nccn3c2C)c1 (relative stereo) [Example 274, 3-Methyl-imidazo[2,1-b]thiazole-2-carboxylic acid [(1R*,2S*,5S*)-3-(2-amino-5-m-tolyl-thiazole-4-carbonyl)-3-aza-bicyclo[3.1.0]hex-2-ylmethyl]-amide]	31	87
Cc1cccc(-c2sc(N)nc2C(=O)N2C[C@H]3C[C@H]3[C@H]2CNC(=O)c2scc3c2OCCO3)c1 (relative stereo) [Example 284, 2,3-Dihydro-thieno[3,4-b][1,4]dioxine-5-carboxylic acid [(1R*,2S*,5S*)-3-(2-amino-5-m-tolyl-thiazole-4-carbonyl)-3-aza-bicyclo[3.1.0]hex-2-ylmethyl]-amide]	33	15
COCCOc1cccc(-c2sc(C)nc2C(=O)N2C[C@H]3C[C@H]3[C@H]2CNC(=O)c2cccc3occc23)c1 (relative stereo) [Example 333, Benzofuran-4-carboxylic acid ((1R*,2S*,5S*)-3-{5-[3-(2-methoxy-ethoxy)-phenyl]-2-methyl-thiazole-4-carbonyl}-3-aza-bicyclo[3.1.0]hex-2-ylmethyl)-amide]	954	172
Cc1nc(C(=O)N2C[C@H]3C[C@H]3[C@H]2CNC(=O)c2cccc3c2OCCO3)c(-c2cccc(C#N)c2)s1 (relative stereo) [Example 336, 2,3-Dihydro-benzo[1,4]dioxine-5-carboxylic acid {(1R*,2S*,5S*)-3-[5-(3-cyano-phenyl)-2-methyl-thiazole-4-carbonyl]-3-aza-bicyclo[3.1.0]hex-2-ylmethyl}-amide]	141	48
Cc1cccc(-c2sc(C#CCO)nc2C(=O)N2C[C@H]3C[C@H]3[C@H]2CNC(=O)c2c(C)nc3sccn23)c1 (relative stereo) [Example 387, 6-Methyl-imidazo[2,1-b]thiazole-5-carboxylic acid {(1R*,2S*,5S*)-3-[2-(3-hydroxy-prop-1-ynyl)-5-m-tolyl-thiazole-4-carbonyl]-3-aza-bicyclo[3.1.0]hex-2-ylmethyl}-amide]	23	85
Cc1cccc(-c2sc(CCCO)nc2C(=O)N2C[C@H]3C[C@H]3[C@H]2CNC(=O)c2c(C)nc3sccn23)c1 (relative stereo) [Example 389, 6-Methyl-imidazo[2,1-b]thiazole-5-carboxylic acid {(1R*,2S*,5S*)-3-[2-(3-hydroxy-propyl)-5-m-tolyl-thiazole4-carbonyl]-3-aza-bicyclo[3.1.0]hex-2-ylmethyl}-amide]	19	17
Cc1ccc(C(=O)N2C[C@H]3C[C@H]3[C@H]2CNC(=O)c2cccc3c2OCC3)c(-c2cccc(F)c2)c1 [Compound 325]	346	40
Cc1ccc(C(=O)N2C[C@H]3C[C@H]3[C@H]2CNC(=O)c2cccc3c2OCCO3)c(-c2ccc3c(c2)OCCO3)c1 [Compound 350]	110	194
Cc1csc(-c2c(C)cccc2C(=O)N2C[C@H]3C[C@H]3[C@H]2CNC(=O)c2cccc3c2OCCO3)c1 [Compound 376]	194	158
